According to patent US20260207645A1, “USE OF INTEGRIN A5B1 AS TARGET IN SCREENING OF DRUGS FOR PREVENTING AND/OR TREATING BONE LOSS” (The Hong Kong Polytechnic University, priority 2023, published 2026):

Key:
[1] = target: T1, integrin α5β1 (Homo sapiens, UniProt P05556+P08648); experiment: competitive solid-phase binding ELISA (soluble integrin α5β1 vs coated fibronectin); conditions: fibronectin-coated plate, soluble integrin α5β1 1.0 μg/ml; read-out: IC50 for competing with fibronectin bound on integrin α5β1
T1 construct: Soluble integrin α5β1 (1.0 μg/ml) (R&D Systems, MN, USA); purchased R&D Systems

[2] = test system: BMSCs; experiment: F-actin cytoskeleton (phalloidin staining, confocal) in BMSCs under microgravity; format: cell-based; conditions: microgravity 3 days
Procedure: Testing procedure: BMSCs were cultured in osteogenic medium. […] The representative images were captured at mid-plane of the cells and visualized using a confocal laser scanning microscope (magnification: 400×, scale bar: 25 μm). Hoechst counter-staining (blue; DAPI) was applied for determination of single cells.

[3] = test system: differentiated BMSCs; experiment: quantitative analysis of differentiation activity (ALP, RhoA, Rac1) of BMSCs under normal gravity and microgravity; format: cell-based; conditions: microgravity
Procedure: Testing procedure: BMSCs were cultured in osteogenic medium. […] The representative images were captured at mid-plane of the cells and visualized using a confocal laser scanning microscope (magnification: 400×, scale bar: 25 μm). Hoechst counter-staining (blue; DAPI) was applied for determination of single cells. […] The quantitative analysis of the differentiation activity of BMSCs under normal gravity and microgravity is shown in FIG. 6, where FIG. 6a is the ALP activity analysis relative to the positive control group, FIG. 6b is the RhoA activity analysis in total protein, and FIG. 6c is the Rac1 activity analysis in total protein. The data in FIGS. 6a, 6b, and 6c are presented as mean values±SEM. Statistical analysis was performed using one-way […]<0.001; versus control: *p<0.05, ###p<0.001 (n=3).

[4] = growth factor, concentration not given

CC(C)=CCc1c(O)cc(O)c2c(=O)c(-c3ccc(O)cc3)coc12 [8-prenylgenistein]
IC50 [1]: 390 ± 280 nM

CC(C)=CCc1c(O)cc(O)c2c1O[C@H](c1ccc(O)cc1)CC2=O [8-prenylnaringenin]
IC50 [1]: 7.6 ± 3.92 nM

C[C@]12CC[C@@H]3c4ccc(O)cc4CC[C@H]3[C@@H]1CC[C@@H]2O [E2, reference compound]
F-actin polymerization [2, 4]: not

COc1ccc(-c2oc3c(CC=C(C)C)c(O[C@@H]4O[C@H](CO)[C@@H](O)[C@H](O)[C@H]4O)cc(O)c3c(=O)c2O[C@@H]2O[C@@H](C)[C@H](O)[C@@H](O)[C@H]2O)cc1 [icariin]
F-actin polymerization ([2]; 10 nM): stimulated F-actin polymerization | F-actin polymerization ([2]; 0.1 μM): stimulated F-actin polymerization | ALP activity ([3]; differentiated BMSCs): significantly increase | Rac1 activity ([3]; differentiated BMSCs): significantly increase | RhoA activity ([3]; differentiated BMSCs): significantly increase | differentiation of BMSCs ([3]; 10 nM): restore the differentiation | differentiation of BMSCs ([3]; 100 nM): restore the differentiation

IGF-1: growth factor, positive control
F-actin polymerization [2, 4]: stimulated F-actin polymerization
